Data taken from ChEMBL document CHEMBL1201862, “PubChem BioAssay data set” (2004).
One block for each compound: values may come before it. Activity calls are given as the source filed them.

How the values were obtained:
[1] = target: Glyceraldehyde-3-phosphate dehydrogenase (Homo sapiens, UniProt P04406)
[2] = target: T1, Alkaline phosphatase, tissue-nonspecific isozyme (Homo sapiens, UniProt P05186); assay: potency against alkaline phosphatase TNAP – biochemical, luminescent, dose response, SAR follow-up (AID 1056)
T1 sequence (P05186 whole entry): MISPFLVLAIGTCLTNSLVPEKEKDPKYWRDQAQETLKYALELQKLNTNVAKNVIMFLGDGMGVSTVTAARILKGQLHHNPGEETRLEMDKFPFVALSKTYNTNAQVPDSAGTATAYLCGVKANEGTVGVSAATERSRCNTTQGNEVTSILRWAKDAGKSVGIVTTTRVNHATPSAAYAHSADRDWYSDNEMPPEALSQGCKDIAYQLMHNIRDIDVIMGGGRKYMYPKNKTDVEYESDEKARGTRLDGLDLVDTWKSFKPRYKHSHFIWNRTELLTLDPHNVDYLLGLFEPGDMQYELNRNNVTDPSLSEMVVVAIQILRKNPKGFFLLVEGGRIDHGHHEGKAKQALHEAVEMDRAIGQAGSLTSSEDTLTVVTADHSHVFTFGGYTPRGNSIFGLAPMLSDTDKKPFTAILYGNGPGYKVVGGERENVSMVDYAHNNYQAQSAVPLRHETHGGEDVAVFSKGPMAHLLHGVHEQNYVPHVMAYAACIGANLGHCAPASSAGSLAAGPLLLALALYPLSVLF

Cytochrome P450 3A4 [3] = target: T2, Cytochrome P450 3A4 (Homo sapiens, UniProt P08684); conditions: Potency
Leucine aminopeptidase = target: T3, Leucine aminopeptidase (Plasmodium falciparum 3D7, UniProt Q8IL11); assay: P. falciparum M17LAP inhibitors, primary screen, biochemical, fluorogenic H-Leu-NHMec substrate, 1536-well (AID 1619); type: functional
T3 sequence (Q8IL11 whole entry): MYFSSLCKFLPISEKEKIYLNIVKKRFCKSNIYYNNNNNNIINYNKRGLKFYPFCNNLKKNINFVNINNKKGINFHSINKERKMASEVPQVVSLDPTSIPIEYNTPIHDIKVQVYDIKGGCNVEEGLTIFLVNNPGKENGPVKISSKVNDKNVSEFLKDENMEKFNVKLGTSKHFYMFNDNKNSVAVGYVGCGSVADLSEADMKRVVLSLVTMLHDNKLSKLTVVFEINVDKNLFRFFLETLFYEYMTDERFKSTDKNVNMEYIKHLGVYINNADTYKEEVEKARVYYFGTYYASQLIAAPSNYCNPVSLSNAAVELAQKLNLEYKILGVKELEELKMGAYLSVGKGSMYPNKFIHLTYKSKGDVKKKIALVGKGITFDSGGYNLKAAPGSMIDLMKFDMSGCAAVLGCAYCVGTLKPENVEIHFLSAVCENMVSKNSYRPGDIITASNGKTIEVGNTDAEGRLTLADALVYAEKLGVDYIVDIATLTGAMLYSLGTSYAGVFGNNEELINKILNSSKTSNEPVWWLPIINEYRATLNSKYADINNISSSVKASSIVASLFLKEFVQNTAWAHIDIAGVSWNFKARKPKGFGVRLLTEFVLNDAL

Bcl-2-related protein A1 = target: T4, Bcl-2-related protein A1 (Mus musculus, UniProt Q07440); type: functional;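 also: confirmatory dose–response counterscreen on Bfl-1, used to check hits from a UBC13 polyubiquitin inhibitor campaign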
T4 sequence (Q07440 whole entry): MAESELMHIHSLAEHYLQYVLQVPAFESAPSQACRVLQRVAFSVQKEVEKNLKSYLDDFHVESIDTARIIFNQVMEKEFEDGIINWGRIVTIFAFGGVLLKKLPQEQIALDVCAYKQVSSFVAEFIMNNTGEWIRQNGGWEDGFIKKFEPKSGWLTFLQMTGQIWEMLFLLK

[4] = target: T5, Ubiquitin-conjugating enzyme E2 N (Homo sapiens, UniProt P61088); type: functional
T5 sequence (P61088 whole entry): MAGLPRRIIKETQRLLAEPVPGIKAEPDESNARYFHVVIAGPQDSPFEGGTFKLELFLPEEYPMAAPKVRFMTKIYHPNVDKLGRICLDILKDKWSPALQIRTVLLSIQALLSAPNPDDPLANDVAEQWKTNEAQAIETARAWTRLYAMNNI

[5] = target: T5, Ubiquitin-conjugating enzyme E2 N; type: functional; remark: listed apart in the source
[6] = target: G-protein coupled receptor 55 (Homo sapiens, UniProt Q9Y2T6); assay: selective activators of receptor GPR55 – imaging, U2OS cells, beta-arrestin-GFP redistribution, primary screen (AID 1961); type: functional
Cytochrome P450 2D6 = Cytochrome P450 2D6 (Homo sapiens, UniProt P10635);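 also: CYP2D6 member of a cytochrome P450 panel assay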
Cytochrome P450 3A4 [7] = target: T2, Cytochrome P450 3A4

T2 sequence (P08684 whole entry): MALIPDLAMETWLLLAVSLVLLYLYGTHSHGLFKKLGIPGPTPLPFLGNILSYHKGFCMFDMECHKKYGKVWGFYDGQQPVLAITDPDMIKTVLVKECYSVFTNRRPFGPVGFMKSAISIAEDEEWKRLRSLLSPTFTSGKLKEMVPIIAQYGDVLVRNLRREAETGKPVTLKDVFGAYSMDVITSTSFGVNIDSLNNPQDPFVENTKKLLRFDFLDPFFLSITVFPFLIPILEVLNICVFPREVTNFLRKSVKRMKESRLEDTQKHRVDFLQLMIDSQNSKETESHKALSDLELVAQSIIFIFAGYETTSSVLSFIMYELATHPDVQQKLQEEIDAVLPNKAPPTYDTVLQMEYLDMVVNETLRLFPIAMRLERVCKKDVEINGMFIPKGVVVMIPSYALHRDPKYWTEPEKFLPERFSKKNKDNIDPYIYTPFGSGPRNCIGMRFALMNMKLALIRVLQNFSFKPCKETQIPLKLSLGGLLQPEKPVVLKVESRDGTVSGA
Chain of Glyceraldehyde-3-phosphate dehydrogenase (P04406 whole entry): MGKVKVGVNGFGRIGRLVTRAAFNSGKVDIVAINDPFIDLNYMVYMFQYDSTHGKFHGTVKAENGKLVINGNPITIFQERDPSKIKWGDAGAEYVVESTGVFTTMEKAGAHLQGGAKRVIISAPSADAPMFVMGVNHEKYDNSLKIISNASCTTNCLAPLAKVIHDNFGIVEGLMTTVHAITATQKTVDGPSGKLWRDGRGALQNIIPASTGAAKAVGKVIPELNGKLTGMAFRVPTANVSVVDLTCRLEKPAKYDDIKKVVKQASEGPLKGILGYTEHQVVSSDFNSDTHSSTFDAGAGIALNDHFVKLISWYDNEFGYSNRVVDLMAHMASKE
Chain of G-protein coupled receptor 55 (Q9Y2T6 whole entry): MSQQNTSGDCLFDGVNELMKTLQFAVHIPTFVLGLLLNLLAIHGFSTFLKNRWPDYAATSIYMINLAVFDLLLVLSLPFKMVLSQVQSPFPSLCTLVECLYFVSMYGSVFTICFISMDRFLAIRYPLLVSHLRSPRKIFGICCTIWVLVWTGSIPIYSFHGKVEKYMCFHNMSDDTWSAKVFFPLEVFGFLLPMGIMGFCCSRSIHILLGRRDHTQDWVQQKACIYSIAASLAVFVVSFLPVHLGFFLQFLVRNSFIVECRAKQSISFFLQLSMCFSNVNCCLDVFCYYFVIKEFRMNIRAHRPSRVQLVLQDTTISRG
Chain of Cytochrome P450 2D6 (P10635 whole entry): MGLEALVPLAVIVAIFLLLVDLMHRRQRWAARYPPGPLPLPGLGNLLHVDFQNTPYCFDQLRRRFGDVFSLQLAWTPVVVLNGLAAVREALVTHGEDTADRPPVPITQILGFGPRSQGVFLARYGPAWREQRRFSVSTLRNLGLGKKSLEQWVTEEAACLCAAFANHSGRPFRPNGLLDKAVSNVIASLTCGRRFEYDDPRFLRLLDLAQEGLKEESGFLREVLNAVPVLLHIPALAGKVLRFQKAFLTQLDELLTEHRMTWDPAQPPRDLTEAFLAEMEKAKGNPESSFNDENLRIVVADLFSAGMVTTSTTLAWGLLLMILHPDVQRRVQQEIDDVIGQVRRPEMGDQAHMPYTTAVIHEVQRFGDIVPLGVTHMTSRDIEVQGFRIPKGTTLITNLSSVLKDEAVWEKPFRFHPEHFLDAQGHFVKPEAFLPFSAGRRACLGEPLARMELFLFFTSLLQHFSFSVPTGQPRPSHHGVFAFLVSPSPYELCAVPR

- IC50 [1]: > 100 µM (not active)
- IC50 [2]: > 100 µM (inactive)
Compound: COc1ccc(OC)c(C(=O)Nc2cnc3ccccc3c2)c1

- AC50 (Cytochrome P450 3A4 [3]): 0.316 µM (inconclusive)
Compound: FC(F)(F)c1ccc(CN2C[C@@H]3C(c4ccc(C(F)(F)F)cc4)C4(c5ccccc5)CC3(C4)[C@H]2c2ccccc2)cc1 (stereo partly specified)

- IC50 (Leucine aminopeptidase): 5.54 µM (active)
Compound: O=C(CN1C(=O)c2ccccc2S1(=O)=O)NCCSc1ccccc1

- IC50 (Bcl-2-related protein A1): > 20 µM (inactive)
- IC50 [4]: 10.7 µM (active)
- IC50 [5]: 8.31 µM (active)
Compound: O=C(c1cccc(S(=O)(=O)N2CCCC2)c1)N1CCCC(C(F)(F)F)C1 (stereo unspecified)

- IC50 [1]: > 100 µM (not active)
- IC50 [2]: 0.74 µM (active)
Compound: COc1cc(N(O)O)ccc1S(=O)(=O)Nc1cnc2ccccc2c1

- AC50 (Cytochrome P450 3A4 [3]): 3.98 µM (inconclusive)
Compound: C=C(C)C(O)/C=C/CCCCCCC (stereo unspecified)

- EC50 [6]: 18.4 µM (inactive)
- AC50 (Cytochrome P450 2D6): 39.8 µM (inconclusive)
- AC50 (Cytochrome P450 3A4 [7]): 39.8 µM (inconclusive)
Compound: CCOC(=O)C(=Cc1ccc(-c2ccsc2C(=O)OC)o1)C(=O)OCC

- EC50 [6]: < 0.5 µM (active)
Compound: CC(/C=N/NC(=O)c1nnn(-c2nonc2N)c1CN1CCCCC1)=C\c1ccccc1

- IC50 [1]: > 100 µM (not active)
- IC50 [2]: 1.72 µM (active)
Compound: CCc1ccc(OC)c(S(=O)(=O)Nc2cccnc2)c1
